Tests used:
Toll-like receptor 2 [1] = biological target: T1, Toll-like receptor 2 (Homo sapiens, UniProt O60603); assay: Agonist activity at TLR2 in HEK-Blue hTLR2 cells assessed as NF-kappaB activation preincubated for 24 hrs followed by replacement of medium containing compound and measured after 0.5 to 1 hrs by Quanti-blue SEAP assay
Toll-like receptor 4 = Toll-like receptor 4 (Homo sapiens, UniProt O00206); assay: Modulation of TLR4 in human THP1 cells assessed as reduction in LPS-induced TLR4 expression pretreated for 2 hrs followed by LPS challenge and measured after 18 hrs by flow cytometry; format: cell-based, THP-1
Sequence of Toll-like receptor 4 (O00206 whole entry): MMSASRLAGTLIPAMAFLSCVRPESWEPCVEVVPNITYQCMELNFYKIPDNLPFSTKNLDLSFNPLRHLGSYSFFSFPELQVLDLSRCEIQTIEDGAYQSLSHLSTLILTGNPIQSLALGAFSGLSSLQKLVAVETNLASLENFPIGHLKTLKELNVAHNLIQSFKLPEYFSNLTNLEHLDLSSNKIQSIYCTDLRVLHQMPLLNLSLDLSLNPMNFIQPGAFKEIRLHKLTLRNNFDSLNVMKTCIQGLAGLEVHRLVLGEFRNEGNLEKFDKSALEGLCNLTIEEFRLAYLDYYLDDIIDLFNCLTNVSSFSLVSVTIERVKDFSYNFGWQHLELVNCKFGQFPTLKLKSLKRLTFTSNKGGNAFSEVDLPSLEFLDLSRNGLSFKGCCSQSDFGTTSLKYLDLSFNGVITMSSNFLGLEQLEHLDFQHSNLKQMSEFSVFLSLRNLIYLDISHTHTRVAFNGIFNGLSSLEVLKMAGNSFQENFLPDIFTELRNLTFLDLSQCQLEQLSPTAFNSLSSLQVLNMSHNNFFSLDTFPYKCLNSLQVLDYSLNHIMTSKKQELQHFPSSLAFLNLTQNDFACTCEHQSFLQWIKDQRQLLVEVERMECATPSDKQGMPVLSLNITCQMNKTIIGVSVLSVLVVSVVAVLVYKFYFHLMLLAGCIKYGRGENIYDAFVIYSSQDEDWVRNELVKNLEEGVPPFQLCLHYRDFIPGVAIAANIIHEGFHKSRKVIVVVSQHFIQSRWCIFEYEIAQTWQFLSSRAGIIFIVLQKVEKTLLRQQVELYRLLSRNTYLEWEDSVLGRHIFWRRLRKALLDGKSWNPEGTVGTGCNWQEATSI

Toll-like receptor 2 [2] = biological target: T1, Toll-like receptor 2; assay: Agonist activity at TLR2 (unknown origin)
Toll-like receptor 5 = Toll-like receptor 5 (Homo sapiens, UniProt O60602); assay: Inhibition of Flagellin-BS binding to human TLR5 expressed in HEK293 cells harboring SEAP reporter gene preincubated for 24 hrs followed by compound wash out and subsequent Flagellin-BS addition along with compound and measured after 0.5 hrs by QUANTI-Blue assay; format: cell-based
Sequence of Toll-like receptor 5 (O60602 whole entry): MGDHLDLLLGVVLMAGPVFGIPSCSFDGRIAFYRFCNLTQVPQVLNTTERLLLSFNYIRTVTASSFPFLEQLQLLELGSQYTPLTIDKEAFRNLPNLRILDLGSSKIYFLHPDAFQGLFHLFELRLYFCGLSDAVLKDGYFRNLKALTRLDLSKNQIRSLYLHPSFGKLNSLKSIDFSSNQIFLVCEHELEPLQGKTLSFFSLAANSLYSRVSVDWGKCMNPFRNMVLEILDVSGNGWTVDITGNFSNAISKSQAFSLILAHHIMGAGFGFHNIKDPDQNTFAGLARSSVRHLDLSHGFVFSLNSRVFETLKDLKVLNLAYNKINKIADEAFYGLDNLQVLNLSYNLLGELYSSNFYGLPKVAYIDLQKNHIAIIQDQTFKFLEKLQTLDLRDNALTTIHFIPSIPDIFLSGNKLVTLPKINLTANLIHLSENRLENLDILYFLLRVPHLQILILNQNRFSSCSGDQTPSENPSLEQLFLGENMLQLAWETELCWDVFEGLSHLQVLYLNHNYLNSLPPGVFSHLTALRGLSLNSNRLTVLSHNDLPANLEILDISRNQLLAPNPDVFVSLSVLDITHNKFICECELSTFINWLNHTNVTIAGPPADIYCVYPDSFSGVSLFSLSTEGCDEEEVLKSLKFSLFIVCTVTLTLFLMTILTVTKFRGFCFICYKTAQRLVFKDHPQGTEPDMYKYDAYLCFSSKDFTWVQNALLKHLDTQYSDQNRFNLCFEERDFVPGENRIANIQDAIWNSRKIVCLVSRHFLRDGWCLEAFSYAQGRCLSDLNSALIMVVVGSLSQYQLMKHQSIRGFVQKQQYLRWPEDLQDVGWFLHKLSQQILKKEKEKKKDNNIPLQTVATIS

T1 sequence (O60603 whole entry): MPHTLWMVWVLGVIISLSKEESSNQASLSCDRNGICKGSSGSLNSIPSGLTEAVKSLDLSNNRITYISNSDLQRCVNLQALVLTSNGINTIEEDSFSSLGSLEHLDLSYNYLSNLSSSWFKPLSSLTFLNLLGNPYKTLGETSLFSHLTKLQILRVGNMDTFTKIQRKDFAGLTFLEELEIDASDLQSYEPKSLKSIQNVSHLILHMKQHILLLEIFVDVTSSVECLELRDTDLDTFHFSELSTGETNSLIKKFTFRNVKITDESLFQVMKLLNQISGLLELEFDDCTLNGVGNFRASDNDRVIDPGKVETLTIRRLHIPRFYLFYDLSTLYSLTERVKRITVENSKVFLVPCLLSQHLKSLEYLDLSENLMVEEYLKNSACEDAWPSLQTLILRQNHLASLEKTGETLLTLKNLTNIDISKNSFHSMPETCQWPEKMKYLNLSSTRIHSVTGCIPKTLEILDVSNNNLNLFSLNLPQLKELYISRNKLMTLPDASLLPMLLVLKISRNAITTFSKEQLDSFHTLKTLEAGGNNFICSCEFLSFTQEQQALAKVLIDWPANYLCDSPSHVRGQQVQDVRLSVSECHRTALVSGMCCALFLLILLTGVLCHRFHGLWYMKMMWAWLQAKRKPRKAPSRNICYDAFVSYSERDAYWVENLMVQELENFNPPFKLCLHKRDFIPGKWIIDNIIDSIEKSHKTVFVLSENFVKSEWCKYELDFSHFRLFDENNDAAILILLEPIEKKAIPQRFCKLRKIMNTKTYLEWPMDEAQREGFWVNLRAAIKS

| EC50 (Toll-like receptor 2 [2]) [nM] | Compound | further results |
| --- | --- | --- |
| 0.47 | CCCCCCCCCCCCCCCC(=O)OC[C@H](CSC[C@H](N)C(=O)N[C@@H](CO)C(=O)N[C@@H](CCCCN)C(=O)N[C@@H](CCCCN)C(=O)N[C@@H](CCCCN)C(=O)N[C@@H](CCCCN)C(=O)N[C@@H](CO)C(=O)N[C@@H](CC(C)C)C(=O)N[C@H](CN[C@@H](CCSC)C(=O)N[C@@H](Cc1c[nH]c2ccccc12)C(=O)N[C@H](C(=O)N[C@H](C(=O)N[C@@H](CCC(N)=O)C(=O)N[C@H](C(=O)O)C(C)C)[C@@H](C)O)[C@@H](C)CC)CC(C)C)OC(=O)CCCCCCCCCCCCCCC | – |
| 0.38 | CCCCCCCCCCCCCCCC(=O)OCCC[C@H](CSC[C@H](N)C(=O)N[C@@H](CO)C(=O)N[C@@H](CCCCN)C(=O)N[C@@H](CCCCN)C(=O)N[C@@H](CCCCN)C(=O)N[C@@H](CCCCN)C(=O)N[C@@H](CO)C(=O)N[C@@H](CC(C)C)C(=O)N[C@H](CN[C@@H](CCSC)C(=O)N[C@@H](Cc1c[nH]c2ccccc12)C(=O)N[C@H](C(=O)N[C@H](C(=O)N[C@@H](CCC(N)=O)C(=O)N[C@H](C(=O)O)C(C)C)[C@@H](C)O)[C@@H](C)CC)CC(C)C)OC(=O)CCCCCCCCCCCCCCC | – |

More lines, now with the values behind:

| Compound | EC50 (Toll-like receptor 2 [2]) [nM] | further results |
| --- | --- | --- |
| CCOC(=O)c1c(NC(=O)N2CCN(C)CC2)sc2c1CCC2 | – | EC50 (Toll-like receptor 2 [1]): 550 nM |
| C=C1C(=O)O[C@@H]2[C@H]3O[C@]3(C)CC/C=C(\C)CC[C@@H]12 | – | IC50 (Toll-like receptor 4): 1400 nM |
| CCCCCCCCCCCCCCCC(=O)OC[C@H](CSC[C@H](NC(C)=O)C(=O)N[C@@H](CO)C(=O)N[C@@H](CCCCN)C(=O)N[C@@H](CCCCN)C(=O)N[C@@H](CCCCN)C(=O)N[C@@H](CCCCN)C(=O)N[C@@H](CO)C(=O)N[C@@H](CC(C)C)C(=O)N[C@H](CN[C@@H](CCSC)C(=O)N[C@@H](Cc1c[nH]c2ccccc12)C(=O)N[C@H](C(=O)N[C@H](C(=O)N[C@@H](CCC(N)=O)C(=O)N[C@H](C(=O)O)C(C)C)[C@@H](C)O)[C@@H](C)CC)CC(C)C)OC(=O)CCCCCCCCCCCCCCC | 0.28 | – |
| CNc1ccc([N+](=O)[O-])cc1-n1cnc(-c2ccc(C(F)(F)F)cc2O)c1 | – | EC50 (Toll-like receptor 2 [1]): 4.88 nM |
| CCCCCCCCCCCCCCCC(=O)OCCCC[C@H](CSC[C@H](N)C(=O)N[C@@H](CO)C(=O)N[C@@H](CCCCN)C(=O)N[C@@H](CCCCN)C(=O)N[C@@H](CCCCN)C(=O)N[C@@H](CCCCN)C(=O)N[C@@H](CO)C(=O)N[C@@H](CC(C)C)C(=O)N[C@H](CN[C@@H](CCSC)C(=O)N[C@@H](Cc1c[nH]c2ccccc12)C(=O)N[C@H](C(=O)N[C@H](C(=O)N[C@@H](CCC(N)=O)C(=O)N[C@H](C(=O)O)C(C)C)[C@@H](C)O)[C@@H](C)CC)CC(C)C)OC(=O)CCCCCCCCCCCCCCC | 0.3 | – |
| c1ccc(Cn2c(Sc3ncnc4c3sc3ncccc34)nnc2-c2ccncc2)cc1 | – | IC50 (Toll-like receptor 5): 850 nM |
